Measurements published in patent US11384109B2, “Method for separating phenolic acid glucoside compounds from Diaphragma juglandis Fructu” (Jiangnan University, priority 2020, dated 2022).
Marks after values point to notes of the source that are not given here.

Assays:
[1] = Solubility description of the isolated compounds
[2] = test system: aging model mice induced by D-galactose; assay: Antioxidant effects in subacute aging model mice induced by D-galactose (serum SOD by ELISA, liver MDA by colorimetry); format: in vivo, ICR mice; settings: 500 mg/kg by gavage for 6 weeks; for Liver MDA / Serum SOD: 150 mg/kg D-galactose s.c., 24 hours after last administration, x ± s, 10 mice per group; for Liver MDA: 10% liver homogenate; for liver MDA content compared with the model group / serum SOD activity compared with the model group: result in words, One-way ANOVA Dunnett test
Source text: 1.1 Animals: ICR mice, 6 weeks old, 20-25 g, SPF grade, purchased from Shanghai Slack Experimental Animal Co., Ltd.
1.2 Reagents: D-galactose, purchased from Sigma, USA; malondialdehyde (MDA) kit, purchased from Nanjing Jiancheng Bioengineering Institute; superoxide dismutase (SOD) kit, purchased from Shanghai Aisalai Eliza Biotechnology Co., Ltd.
2.1 Animal grouping and administration: after one week of adaptive feeding, mice were randomly divided into 5 groups, 10 mice each group. The administration group was gavaged with Compounds 1-3, 500 mg/kg per compound. The blank group and aging model group were gavaged with equal volume of normal saline for 6 weeks. At the same time, 150 mg/kg D-galactose was injected subcutaneously into the aging model group and the administration group respectively to establish a subacute aging model of mice. The blank control group was injected with equal volume of normal saline for 6 weeks.
2.2 Sample preparation and index determination: 24 hours after the last administration, blood was collected from the eyeballs of mice; after dislocation for execution, the liver was removed, cleaned and ground at low temperature to prepare 10% tissue homogenate, which was centrifuged at 3500 rpm and 4° C. for 10 min, and supernatant was taken and stored at −20° C. The content of MDA in the liver tissue was determined by colorimetry, and the activity of SOD in serum was determined by ELISA.
2.3 Statistical analysis: the results were expressed as x±s. The results were analyzed by One-way ANOVA Dunnett test using SPSS 20 software.

| Compound | solubility in chloroform [1] | solubility in water, ethanol and the like [1] | Liver MDA [2] | Serum SOD [2] | liver MDA content compared with the model group [2] | serum SOD activity compared with the model group [2] |
| --- | --- | --- | --- | --- | --- | --- |
| 2,6-dihydroxynaphthyl-O-β-D-glucopyranoside [Compound 3] | insoluble | soluble | 0.183 ± 0.051^a nmol/mg tissue | 103.44 ± 15.75^a U/mL | significantly (P<0.05) lower than that in the model group | significantly (P<0.05) higher than that in the model group |
| OC[C@H]1O[C@@H](Oc2ccc3cc(O)ccc3c2O[C@@H]2O[C@H](CO)[C@@H](O)[C@H](O)[C@H]2O)[C@H](O)[C@@H](O)[C@@H]1O [Compound 2, 6-hydroxylnaphthyl-1,2-di-O-β-D-glucopyranoside] | – | – | 0.198 ± 0.037^a nmol/mg tissue | 97.06 ± 10.18^a U/mL | significantly (P<0.05) decreased | significantly (P<0.05) increased |
| COc1ccc(O)c(O[C@@H]2O[C@H](CO)[C@@H](O)[C@H](O)[C@H]2O)c1 [Compound 1, 2-hydroxyl-5-methoxylphenyl-O-β-D-glucopyranoside] | insoluble | soluble | 0.211 ± 0.019^a nmol/mg tissue | 94.90 ± 8.07^a U/mL | significantly (P<0.05) decreased | significantly (P<0.05) increased |
